Experimental data published in patent publication EP4772500A1, “NOVEL ISOXAZOLE COMPOUND AS TM4SF5-SPECIFIC INHIBITOR AND USE THEREOF” (Seoul National University R&DB Foundation, priority 2023, dated 2025).

Experiments:
Assay type in all cases: cell-based, human
SNU761-TM4SF5 = experiment: Western blotting of SLAMF7 expression, TM4SF5-expressing SNU761 cells; conditions: chloroquine 10 µM, 24 hours (FIG. 15d)
Method: Cell extracts were obtained from cells grown to a density of 70-80% without any treatment, or from cells treated with vehicle DMSO or drugs at the given concentrations for 24 hours. For the extract of hepatocytes or liver cancer cells, a lysis buffer (150 mM NaCl, 1% NP-40, 50 mM Tris-HCl, 0.25% sodium deoxycholate, pH 7.4) including a protease inhibitor cocktail (GenDEPOT) was used. In addition, after washing animal liver tissue twice with PBS, SDS, Na3VO4, and protease inhibitor cocktails (GenDEPOT) were added to a lysis buffer [50 mM Tris-HCl, pH 7.4, 1% NP40, 0.25% sodium deoxycholate, 150 mM NaCl, 1 mM EDTA (based on 500 ml)], followed by treatment at 4°C for 15 minutes. After centrifugation at 13,000 rpm at 4°C for 30 minutes, only the supernatant was transferred to a new microcentrifuge tube. After quantification using BCA reagent (Thermo Scientific), a 4 × sample buffer [100% glycerol 4 ml, Tris-HCl, pH 6.8, 2.4 ml, SDS 0.8 g, Bromophenol blue 4 mg, betamercaptoethanol 0.4 ml, H2O 3.1 ml (based on 10 ml)] was added, followed by boiling at 100°C for 5 minutes. After performing SDS-PAGE electrophoresis with the above samples and transferring them to Nitrocellulose Membranes Protran™ nitrocellulose membranes (Whatman), pre-treatment was performed with 5% skim milk for 1 hour. After pre-treatment, primary antibodies of p-FAK(Y861) (SC-16663), p-FAK(Y577) (SC-16665), c-Src (SC-8056), STAT3 (SC-8019), p-AKT 1/2/3(S473) (SC-7985), STATS (SC-835), Laminin γ2 (SC-393225), COL1A1 (SC-28657), CCL5(RANTES) (SC-514019) CCL20(MIP-3α) (SC-517441), SIRT1 (SC-74465), ChREBP (SC-515922), SREBP1 (SC-366513), DGAT1 (SC-271934), DGAT2 (SC-293211), MICA/B (SC-137242), SLAMF7 (SC-390840), α-tublin (SC-5286), β-actin (SC-47778), FUCA (SC-365496) (the above from Santa Cruz Biotech, USA), p-FAK(Y397) (cat # 611723), FAK (cat # 610088), p27 (cat # 610242) (the above from BD Transduction, USA), p-FAK(Y925) (#3284) p-c-Src(Y416) (#2101), p-STAT3(Y705) (#9145), p70S6K1 (#9202), p-p70S6K1(T389) (#9205), p-STAT5(Y694) (#9314), ACC (#3676), FASN (#3189), CPT1A (#12252), p-ACC(S79) (#11818), HA (#3724), PD-L1 (#13684), PD-1 (#86163), p-ERK1/2(T202/Y204) (#9101s), ERK1/2 (#9102s) (the above from Cell Signaling Tech., USA), pS10p27(S10) (ab62364), human SLAMF6 (ab224201), TIGIT (ab233404), CD34 (ab81289) (the above from Abcam, UK), mouse SLAMF6 (PA5-87823), NKG2D (PA5-102038) (the above from Thermofisher, USA), α-SMA (Sigma Aldrich, A5228), CCL2 (Invitrogen, MA5-17040), and CD155(PVR) (Biolegend, 337601), HA (Biolegend, USA), Strep-HRP(horse-radish peroxidase), StrepMAB-HRP (IBA, USA), AFP (FineTest, FNab00203) were reacted at 4°C for 15 hours. The next day, secondary antibodies were reacted, and development was performed on X-ray film using ECL (Pierce, USA). […]
After 24 hours, vehicle DMSO, drug ST-1-025, or ST-5-002 was treated at the given concentrations. […] (f) After treating NK92-EV or NK92-TM4SF5 cells with DMSO or drugs ST-2-001 (1 nM), ST-3-005 (10 nM or 1 µM), ST-5-001, or ST-5-002 (100 nM or 1 µM) for 24 hours, the expression of SLAMF7 expressed on the cell surface was analyzed through immunostaining using flow cytometry. The expression level of SLAMF7 was confirmed by adding a SLAMF7 antibody to bind with SLAMF7 and then measuring the fluorescence linked to the SLAMF7 antibody using flow cytometry. […]

[1] = tested on: TM4SF5-expressing cells (SNU449T7); experiment: Western blotting for signaling factors whose phosphorylation increases in a TM4SF5-expression dependent manner; conditions: for phosphorylation of FAK, c-Src, STAT3, p27, S6K1, AKT, and STAT5: 5 µM, 24 hours (FIG. 9a-b); for phosphorylation of FAK, STAT3, c-Src, S6K1, Akt, and p27: given concentrations
Method: (§1) Cell extracts were obtained from cells grown to a density of 70-80% without any treatment, or from cells treated with vehicle DMSO or drugs at the given concentrations for 24 hours. For the extract of hepatocytes or liver cancer cells, a lysis buffer (150 mM NaCl, 1% NP-40, 50 mM Tris-HCl, 0.25% sodium deoxycholate, pH 7.4) including a protease inhibitor cocktail (GenDEPOT) was used. In addition, after washing animal liver tissue twice with PBS, SDS, Na3VO4, and protease inhibitor cocktails (GenDEPOT) were added to a lysis buffer [50 mM Tris-HCl, pH 7.4, 1% NP40, 0.25% sodium deoxycholate, 150 mM NaCl, 1 mM EDTA (based on 500 ml)], followed by treatment at 4°C for 15 minutes. After centrifugation at 13,000 rpm at 4°C for 30 minutes, only the supernatant was transferred to a new microcentrifuge tube. After quantification using BCA reagent (Thermo Scientific), a 4 × sample buffer [100% glycerol 4 ml, Tris-HCl, pH 6.8, 2.4 ml, SDS 0.8 g, Bromophenol blue 4 mg, betamercaptoethanol 0.4 ml, H2O 3.1 ml (based on 10 ml)] was added, followed by boiling at 100°C for 5 minutes. After performing SDS-PAGE electrophoresis with the above samples and transferring them to Nitrocellulose Membranes Protran™ nitrocellulose membranes (Whatman), pre-treatment was performed with 5% skim milk for 1 hour. After pre-treatment, primary antibodies of p-FAK(Y861) (SC-16663), p-FAK(Y577) (SC-16665), c-Src (SC-8056), STAT3 (SC-8019), p-AKT 1/2/3(S473) (SC-7985), STATS (SC-835), Laminin γ2 (SC-393225), COL1A1 (SC-28657), CCL5(RANTES) (SC-514019) CCL20(MIP-3α) (SC-517441), SIRT1 (SC-74465), ChREBP (SC-515922), SREBP1 (SC-366513), DGAT1 (SC-271934), DGAT2 (SC-293211), MICA/B (SC-137242), SLAMF7 (SC-390840), α-tublin (SC-5286), β-actin (SC-47778), FUCA (SC-365496) (the above from Santa Cruz Biotech, USA), p-FAK(Y397) (cat # 611723), FAK (cat # 610088), p27 (cat # 610242) (the above from BD Transduction, USA), p-FAK(Y925) (#3284) p-c-Src(Y416) (#2101), p-STAT3(Y705) (#9145), p70S6K1 (#9202), p-p70S6K1(T389) (#9205), p-STAT5(Y694) (#9314), ACC (#3676), FASN (#3189), CPT1A (#12252), p-ACC(S79) (#11818), HA (#3724), PD-L1 (#13684), PD-1 (#86163), p-ERK1/2(T202/Y204) (#9101s), ERK1/2 (#9102s) (the above from Cell Signaling Tech., USA), pS10p27(S10) (ab62364), human SLAMF6 (ab224201), TIGIT (ab233404), CD34 (ab81289) (the above from Abcam, UK), mouse SLAMF6 (PA5-87823), NKG2D (PA5-102038) (the above from Thermofisher, USA), α-SMA (Sigma Aldrich, A5228), CCL2 (Invitrogen, MA5-17040), and CD155(PVR) (Biolegend, 337601), HA (Biolegend, USA), Strep-HRP(horse-radish peroxidase), StrepMAB-HRP (IBA, USA), AFP (FineTest, FNab00203) were reacted at 4°C for 15 hours. The next day, secondary antibodies were reacted, and development was performed on X-ray film using ECL (Pierce, USA). Anti-TM4SF5C-ter (epitope region of RKKQDTPH^197) and anti-TM4SF5EC2 (CLMNGEWGYHFEDTAGA^130) were custom-made at a professional antibody production company (Pro-Sci, Poway, CA, USA).
Cell extracts were obtained before and after treating TM4SF5-non-expressing cells (SNU449Cp) and TM4SF5-expressing cells (SNU449T7) with ST-1-024 or ST-1-025 drugs at the given concentrations for 24 hours, and Western blotting was performed for signaling factors whose phosphorylation and activity increase in a TM4SF5-expression dependent manner.
(a) Cell extracts were obtained after treating TM4SF5-non-expressing cells (SNU449Cp) and TM4SF5-expressing cells (SNU449T7) with vehicle (DMSO), TSAHC, or isoxazole compounds ST-2-001, ST-2-002, ST-2-003, ST-2-004, ST-2-005, ST-2-006, ST-2-007, ST-2-008, ST-2-009, ST-2-010, or ST-2-011 at a dose of 5 µM (for 24 hours). Using these, Western blotting was performed for signaling factors whose phosphorylation and activity increase in a TM4SF5-expression dependent manner. […]

[2] = tested on: TM4SF5-non-expressing cells (SNU449Cp); experiment: Western blotting for signaling factor phosphorylation in TM4SF5-non-expressing cells; conditions: 5 µM, 24 hours (FIG. 9a-b, blue-lined boxes)
Method: as §1
(a) Cell extracts were obtained after treating TM4SF5-non-expressing cells (SNU449Cp) and TM4SF5-expressing cells (SNU449T7) with vehicle (DMSO), ST-2-001, or an ST-2-001-based derivative drug at a concentration of 5 µM for 24 hours. (b) Cell extracts were obtained after treating SNU449Cp and SNU449T7 with DMSO, ST-2-001, ST-3-001, ST-3-006, ST-3-007, ST-3-010, or ST-3-011 at a concentration of 5 µM for 24 hours. (c) Cell extracts were obtained after treating SNU449Cp and SNU449T7 with DMSO, ST-2-001, ST-3-006, or ST-3-011 at the given concentrations for 24 hours. (a-c) Using the cell extracts obtained after the drug treatment, Western blotting was performed for signaling factors whose phosphorylation and activity increase in a TM4SF5-expression dependent manner.

[3] = tested on: TM4SF5-expressing cells (SNU449T7); experiment: 3D sphere growth/proliferation
Method: TM4SF5-non-expressing cells (SNU449Cp) and TM4SF5-expressing cells (SNU449T7) of the same number (200 cells/well or 1000 cells/well) were added per well into Costar Ultra-Low Attachment Multiple Well Plates (CORNING), and were then treated with vehicle (DMSO) or drugs at various concentrations and cultured in a cell incubator under conditions of 37°C and 5% CO2. After repeatedly treating with the same concentrations of drugs every few days at regular intervals as indicated from the date of cell culture, the proliferation of the cells (spheres) was observed and photographed using an optical microscope on the last day of observation.
The drugs treated were the positive control drug TSAHC or the ST-1-025 isoxazole compound at the given concentrations. From the time of starting culture (0 day), (FIG. 3a) in the case of 2D culture, the number of cells was measured after treating with the drug every 24 hours, or (FIG. 3b) in a 3D environment, the proliferation of cells (spheres) was observed and photographed with an optical microscope on the 5th and 7th days after a single drug treatment at the start of culture. […]

[4] = 0.5 or 2.5 µM, observed 6th or 10th day (FIG. 10a, b)

## CCN(CC)CCCC(C)Nc1ccnc2cc(Cl)ccc12 (stereo not drawn) [CQ, chloroquine, reference compound]
SNU761-TM4SF5
  reduction in SLAMF7 expression: not clearly seen

## CC(=O)Nc1ccc(-c2cc(-c3ccc(C(C)(C)C)cc3)on2)cc1 [ST-3-007, N-(4-(5-(4-(tert-butyl)phenyl)isoxazole-3-yl)phenyl)acetamide]
[1]
  phosphorylation of FAK, c-Src, STAT3, p27, S6K1, AKT, and STAT5: decreased
[2]
  phosphorylation of some signaling factors: increased
[3]; [4]
  degree of three-dimensional cell proliferation: inhibited

## C=CC(=O)Nc1ccc(-c2cc(-c3ccc(OC)cc3)on2)cc1 [ST-3-010, N-(4-(5-(4-methoxyphenyl)isoxazole-3-yl)phenyl)acrylamide]
[1]
  phosphorylation of FAK, c-Src, STAT3, p27, S6K1, AKT, and STAT5: decreased
[2]
  phosphorylation of some signaling factors: increased
[3]; 0.1 or 1.0 µM, observed 10th day (FIG. 10c)
  degree of three-dimensional cell proliferation: decreased
[3]; 0.5 or 2.5 µM (FIG. 10a, b), comparison among drugs
  cell proliferation inhibitory effect: strong
[3]; [4]
  degree of three-dimensional cell proliferation: inhibited

## Cc1ccc(S(=O)(=O)Nc2ccc(-c3cc(-c4ccc(O)cc4)no3)cc2)cc1 [ST-4-005, N-(4-(3-(4-hydroxyphenyl)isoxazole-5-yl)phenyl)-4-methylbenzenesulfonamide]
[1]; 24 hours (FIG. 12a)
  phosphorylation of FAK, STAT3, c-Src, S6K1, Akt, and p27: inhibited in many cases including STAT3, S6K1, and FAK
[1]; 24 hours (FIG. 12d)
  phosphorylation of FAK, STAT3, c-Src, S6K1, Akt, and p27: inhibited
[3]; given concentrations on the 0, 3, 6, and 9th days, observed 10th day (FIG. 12b-c)
  survival/proliferation of the spheres: inhibited
